Laboratory results taken from patent US12448624B2, “Modified nucleic acid having improved treatment efficacy, and anticancer pharmaceutical composition containing same” (INTEROLIGO CORPORATION, priority 2018, dated 2025).
{Gem} = gemcitabine nucleotide residue

Tests used:
[1] = Stability of atelocollagen/collagen disk formulations in rat plasma; assay type: in vitro ADME; settings: 37° C.
Experimental: Sample treatment, calibration curve creation, and LC-MS/MS analysis conditions are the same as described above.
Sample treatment was conducted as follows. […] Thereafter, the supernatant was taken and then centrifuged again under the same conditions as above. Then, 5 μL of the concentrate was taken and diluted by 10-fold using the same rat plasma in order to measure a concentration in plasma (“plasma concentration”). […] The above sample treatment was conducted in the same manner as the calibration curve creation, followed by performing sample analysis under the same LC-MS/MS conditions.
In order to evaluate the stability of the IO101L/atelocollagen disk formulation in rat plasma, experiments were conducted with 5 groups (Groups 1-5) (see Table 12 below). Normal collagen (SK Co.) was used for comparison with atelocollagen.

[2] = mouse, in vivo
Experimental: Male […]/severe combined immunodeficiency mice, NOD/Shi-scid, IL-2RγKO mice (NOG mice®) (Central Lab Animal Inc., Saeronbio Inc., Seoul) and female nu/nu athymic mice (Orientbio) were maintained in 12 hours light/12 hours dark cycle under pathogen-free conditions. At the time of surgery, 10 new pancreatic tumor specimens stored in the patient's primary tumor (Institutional Examination Committee No. 4-2017-0594) was placed on ice-cooled RPMI medium, PDX SOP of PDTX Cleanbench Department Laboratory Animal Resources (Yonsei Biomedical Research Institute, Seoul) was washed with cold PBS, and non-necrotic fragments were cut into small pieces (2×2×2 mm) to remove blood or lipid portions. […]
After skin incision in PDX mice, the control (No treatment), Gem-IP (; sol-gel type), IO101-IP (; sol-gel type), IO101/AC disk (2.0 mg/3.0%), IO101-Con/AC (2.0 mg/3.0%) and Gem/atelocollagen disk (0.12 mg/3.0%), respectively, were implanted locally by subcutaneous anesthetic dissection between skin and tumor. A tumor size was measured three times per week by caliper measurement (Mitutoyo, Absolute AOS Digmatic, Kawasaki, Japan), and a volume was calculated as described above. Tumor growth in drug-treated animals was expressed as a tumor growth rate (tumor volume/initial tumor volume) compared to vehicle-treated mice. […]

[3] = system: patient-derived pancreatic cancer cells; experiment: PDX pancreatic cancer mouse model, TUNEL analysis; assay type: in vivo; settings: 1 month after implantation
From the text: Untreated control mice were also included for comparison.
1 month after the disk implantation, mice were sacrificed, and tissue samples and blood were collected.

in vivo = settings: rat, iv
Experimental: Sprague-Dawley male rats were subjected to induced anesthesia with isoflurane, which is an inhalation anesthetic, then a polyethylene (PE) tube (Clay Adams, Becton Dickinson, NJ, USA) was inserted into a carotid artery (for blood collection) and sutured with a suture, followed by fixing an end of the suture behind the neck. During surgery, anesthesia was maintained using ether and about 0.5 mL of physiological saline containing heparin (20 units/mL) was injected to prevent blood from clotting in a cannula. After the surgery is finished, the rats were placed in metabolic cages and allowed to recover completely from the anesthetic condition (4 to 5 hours), respectively. […] 1 and 2 ml/kg of drugs were administered intravenously. […] 5. 15. 30, 45, 60, 120, 360 and 720 minutes after the administration, 0.3 mL of blood was each collected through a […]. […] Then, the blood in the Eppendorf tube was immediately centrifuged, followed by storing the plasma.
All analytical procedures were implemented under conditions of shielding the tube. That is, all procedures were performed under quantification condition: SRM (selected reaction monitoring) mode (see Table 5 above), fixed phase condition: Hypersil gold C18, 1.9 μm, 100×2.1 mm^2 (Thermo Scientific, Matriks, Oslo, Norway), and mobile phase condition: distilled water (A) containing 0.1% formic acid and acetonitrile (B) (see Table 6 above).
Metformin as an internal standard substance (IS) was dissolved in acetonitrile to prepare another working solution of 645 ng/mL.
150 μL of the internal standard, that is, metformin was added to 50 μL of plasma (645 ng/mL in acetonitrile) and vortexed for 10 minutes, followed by performing centrifugation at 15,000 rpm and […] for 20 minutes. Thereafter, 150 μL of the supernatant was taken and transferred to another Eppendorf tube, and then the organic solvent was dried under a nitrogen stream. Then, 125 μL of tertiary distilled water was added to the dried Eppendorf tube, allowed to be redissolved. Then, the solution was vortexed for 5 minutes, centrifuged at 15,000 rpm and […] for 5 minutes. Thereafter, 100 μL of the supernatant was transferred to the vial for LC-MS/MS, 5 μL of the supernatant was injected and analyzed by LC-MS/MS.
Values of an area under the plasma concentration-time curve (AUCt) were calculated using a log-linear trapezoidal equation from the plasma concentration-time curves after the administration of drug to the final quantification time (specifically, the linear-trapezoidal equation is used in a section where the plasma concentration is increased, while in another section where plasma concentration is decreased, the trapezoidal equation is used by log transforming the concentration value). After oral administration, the highest plasma concentration (Cmax) and the time to reach the highest plasma concentration (Tmax) were determined from the plasma concentration-time curve. Values of the area (AUCinf) under the plasma concentration till infinite time-time curve were determined using the following equation. A terminal elimination rate constant (γZ) and half-life (t1/2) were determined from a slope of elimination of the plasma concentration. AUinf=AUCt+Ct/γZ(Ct: final quantification concentration, γZ: terminal elimination rate constant)

[4] = In vitro stability: dFdC and dFdU in plasma by LC-MS/MS; assay type: in vitro ADME; settings: rat plasma
Experimental: From the chromatogram obtained by the established LC-MS/MS assay method, peak area ratios of dFdC, dFdU and dFdCTP to a peak area of the internal standard substance were estimated, followed by calculating a concentration in the mouse plasma and a concentration in tissues from a previously created calibration curve.
1 mL of mouse blood was collected and placed in a 1.5 mL Eppendorf tube containing 10 μL of 10 mg/mL (in DW) tetrahydrouridine (THU). After centrifugation under conditions of 14,000 rpm and 4° C. for 2 minutes using a centrifuge, only plasma was taken and transferred to another vial and stored at −80° C. After transferring 50 μL of plasma to a 1.5 mL amber Eppendorf tube, 150 μL of an internal standard substance (meltform 1.29 μg/mL in ACN) was added and vortexed for 10 minutes. Centrifugation was conducted using a centrifuge under conditions of 14,000 rpm and 4° C. for 20 minutes. In the centrifuged tube, 150 μL of sample was transferred to another 1.5 mL amber Eppendorf tube. An organic solvent was dried using a GeneVac EZ-2 automated evaporation system (GeneVac Ltd., Ipswich, UK). (GeneVac HPLC mode, max temperature 35° C., 1 hr). The organic solvent was reconstituted by adding 125 μL DW to a 1.5 mL dried amber Eppendorf tube. After vortexing for 5 minutes, centrifugation was conducted using a centrifuge under conditions of 14,000 rpm and 4° C. for 5 minutes. The supernatant of the centrifuged solution was added in an amount of 100 μL to each vial for LC-MS/MS using a PTFE (hydrophilic) 0.2 μm syringe filter (Toyo Toshi, Japan). Specifically, 5 μL of the supernatant was injected into each LC-MS/MS.
Chromatography was performed using an Agilent 1200 series separation module (Agilent Technologies, Waldbronn, Germany). […] An injection volume was 5 μL, a mobile phase was a gradient eluent system [A: 100% ACN, B: 0.1% formic acid in DW], and a total running time was 20 minutes. A calibration range was set to be 20 to 5,000 ng/mL.
Each sample was treated according to the above 2-1-1 and 2-1-2, and a ratio of dFdC/dFdU in rat plasma was measured in regard to the compound types of (Gem)x-[TGG]m[TTG][TGG]n.

[5] = system: BxPC3 (pancreatic cancer); experiment: Cell proliferation inhibition (MTT), BxPC3; assay type: cell-based; settings: MTT assay, 3 days
Experimental: (§1) 2.5 to 5.0×10^5 cells/well, which is the cell number defined by cell test to determine the appropriate cell concentration in the pancreatic cancer cell line B x PC3 cell (ATCC, IMDM+10% PBS), were seeded in a 96 well plate and incubated for one day. […] The treated BxPC3 cells were incubated in a 5% CO2 incubator for 3 days, treated with 20 μL of reagent solution for MTT assay (Cell Proliferation KitII, Roche), and then incubated hourly (10 minutes, 30 minutes, 60 minutes), followed by measuring absorbance at 490 nm by a reader through ELISA (See FIGS. 28 and 29).
(§2) Cell proliferation inhibitory efficacy against other cell lines MD-MBA 231 (breast cancer), Uuh-7 (liver cancer), HT29 (colon cancer) and Mv4-11 (AML) was also verified in the same manner as described above.

[6] = system: BxPC3, PANC-1, Miapaca-2, and Capan-1; experiment: Cell survival (WST-1) of pancreatic cancer cell lines; assay type: cell-based; settings: WST-1, 48 hours, 100 nM to 100 μM, all four pancreatic cancer cell lines
Experimental: BxPC3, PANC-1, Miapaca-2, and Capan-1 were cultured as pancreatic cancer cell lines, respectively. When the cells were stable after several subcultures, 1×10^3 cells were seeded in 96 well plates to verify drug effects. On the next day, IO101, IO100, IO100-Con, IO101-Con and Gem at the highest concentration of 100 μM were diluted by 1/10 per each well, and prepared at a concentration of 4 points up to 100 nM. Then, the cells seeding in the 96 well plates were treated using the above prepared variants. After 48 hours, 10 μl of WST-1 solution was added to the wells and incubated in a 37° C. incubator for 1 hour. Subsequently, each sample was measured at 440 nm in a micro plate reader (VERSA Max). After calculation of the measured values, a cell survival rate graph for each treatment concentration was drawn up.

[7] = system: MD-MBA 231 (breast cancer); experiment: Cell proliferation inhibition (MTT), MD-MB231; assay type: cell-based; settings: MTT assay, 3 days
Experimental: as §1, §2

Nc1ccn([C@@H]2O[C@H](CO)[C@@H](O)C2(F)F)c(=O)n1 [Gemcitabine, 2,2′-difluorodeoxycytidine]
dFdC Blood concentration ([1]; 2 hours incubation): 218 µg/mL
dFdC Blood concentration, supernatant ([1]; supernatant (Ultracell-3K), 2 hours): 232 µg/mL
PLT [2]: 684.1 ± 246.3 X1000/μl
apoptosis (TUNEL analysis) in tumor [3]: an apoptosis process was confirmed
AUC(0-inf) (in vivo; male, Sprague-Dawley, 8 mg/kg): 24500 ng·h/mL
AUC(0-t) (in vivo; male, Sprague-Dawley, 8 mg/kg): 23200 ng·h/mL
Cmax (in vivo; male, Sprague-Dawley, 8 mg/kg): 13300 ± 5640 ng/mL
MRT (in vivo; male, Sprague-Dawley, 8 mg/kg): 3.48 h
Tmax (in vivo; male, Sprague-Dawley, 8 mg/kg): 1 min
Vd (in vivo; male, Sprague-Dawley, 8 mg/kg): 1.15 ± 0.223 L/kg
clearance (in vivo; male, Sprague-Dawley, 8 mg/kg): 5.59 ± 0.86 mL/min/kg
dFdU AUCt (in vivo; male, Sprague-Dawley, 8 mg/kg): 265 ± 57.1 µg·min/mL
dFdU Cmax (in vivo; male, Sprague-Dawley, 8 mg/kg): 477 ± 87.9 ng/mL
dFdU Tmax (in vivo; male, Sprague-Dawley, 8 mg/kg): 240 (120-360) min
half-life (in vivo; male, Sprague-Dawley, 8 mg/kg): 2.95 ± 0.475 h
concentration at 30 min (in vivo; male, Sprague-Dawley, Gemcitabine blood concentration, 30 minutes): 5600 ng/mL
concentration at 45 min (in vivo; male, Sprague-Dawley, Gemcitabine blood concentration, 45 minutes): 3410 ng/mL
concentration at 60 min (in vivo; male, Sprague-Dawley, Gemcitabine blood concentration, 60 minutes): 3550 ng/mL
concentration at 120 min (in vivo; male, Sprague-Dawley, Gemcitabine blood concentration, 120 minutes): 2800 ng/mL
dFdU blood concentration, 1 minute (in vivo): BLLoQ
dFdU blood concentration, 5 minutes (in vivo): BLLoQ

(Gem)2-[TGG]1[TTG][TGG]1 [compound 1]
dFdC/dFdU ratio [4]: 1.76

(Gem)2-[TGG]1[TTG][TGG]2 [compound 2]
dFdC/dFdU ratio [4]: 2.01

(Gem)2-[TGG]2[TTG][TGG]1 [compound 3]
dFdC/dFdU ratio [4]: 2.20

(Gem)2-[TGG]2[TTG][TGG]2 [compound 4]
dFdC/dFdU ratio [4]: 2.61

(Gem)2-[TGG]2[TTG][TGG]3 [compound 5]
dFdC/dFdU ratio [4]: 2.79

(Gem)2-[TGG]3[TTG][TGG]2 [compound 6]
dFdC/dFdU ratio [4]: 2.84

(Gem)2-[TGG]3[TTG][TGG]3 [compound 7]
dFdC/dFdU ratio [4]: 3.29

(Gem)2-[TGG]3[TTG][TGG]4 [compound 8]
dFdC/dFdU ratio [4]: 3.80

(Gem)2-[TGG]4[TTG][TGG]3 [compound 9]
dFdC/dFdU ratio [4]: 6.04

(Gem)2-[TGG]4[TTG][TGG]4 (DNA TGGTGGTGGTGGTTGTGGTGGTGGTGG; two 5' gemcitabine residues, chemistry not fully specified) [compound 10, gemcitabine-containing oligonucleotide variant]
IC50 [5]: 8.9 nM
pancreatic cancer cell growth inhibition (cell survival rate) [6]: effectively inhibits pancreatic cancer cell growth in proportion to a drug concentration
IC50 [7]: 18 nM
dFdC/dFdU ratio [4]: 12.00

(Gem)2-[TGG]4[TTG][TGG]5 (DNA TGGTGGTGGTGGTTGTGGTGGTGGTGGTGG; DNA, 5' {Gem}-{Gem}, backbone not given here) [compound 11, gemcitabine-containing oligonucleotide variant]
IC50 [5]: 8.5 nM
pancreatic cancer cell growth inhibition (cell survival rate) [6]: pancreatic cancer cell growth was effectively inhibited
IC50 [7]: 15 nM
dFdU Tmax (in vivo): 360 min
dFdC/dFdU ratio [4]: 14.10

(Gem)2-[TGG]5[TTG][TGG]4 [compound 12]
dFdC/dFdU ratio [4]: 13.63

(Gem)2-[TGG]5[TTG][TGG]5 [compound 13]
dFdC/dFdU ratio [4]: 11.85

(Gem)2-[TGG]5[TTG][TGG]6 [compound 14]
dFdC/dFdU ratio [4]: 11.59

(Gem)2-[TGG]6[TTG][TGG]5 [compound 15]
dFdC/dFdU ratio [4]: 13.67

(Gem)2-[TGG]6[TTG][TGG]6 [compound 16]
dFdC/dFdU ratio [4]: 13.59
